From US20220218734A1, “COMBINATIONS OF THERAPEUTIC AGENTS FOR TREATING UVEAL MELANOMA” (Universiteit Gent, priority 2019, published 2022)

Key:
[1] = system: UM cell lines 92.1 and OMM1; test: ASO-compound combination validation, Excess over Bliss (viability and confluence); format: cell-based, human; conditions: compound combined with LNA ASO 3 (50 nM), 72 h, viability and confluence read outs; >0 synergism
Method: For the validation experiments, uveal melanoma cell lines 92.1 and OMM1 were seeded in 96 well plates (Corning costar 3596) at a density of 5000 cells/well and were allowed to settle overnight. Subsequently, the cells were transfected using lipofectamine 2000 (Life Technologies) with 50 or 100 nM LNA ASO 3 or LNA NTC and treated with various concentrations of the compounds and with a final DMSO concentration of maximum 0.1%. The compounds were added to the wells using the HP D300e Digital dispenser (Tecan). Control cells were transfected with LNA NTC ASO and treated with DMSO.
Cell viability was also examined using a CellTiter-Glo assay (Promega). Before initiating the assay, the culture plates and reconstituted assay buffer were placed at room temperature for 30 minutes. Next, the culture medium was replaced by 200 μl fresh culture medium—- assay buffer (1:1) mix. To induce complete cell lysis, the plates were shaken for 10 min. 100 μl from each well was subsequently transferred to an opaque 96-well plate (Nunc), which was measured with a GloMax 96 Microplate Luminometer (Promega). The CellTiter-Glo assay was performed on various predefined timepoints.
For real-time analysis, IncuCyte Zoom system and IncuCyte S3 system (Essen BioScience) were used. Cells were seeded and treated as described above. After treatment, the culture plate was incubated in an IncuCyte Zoom system or IncuCyte S3 system at 37° C. in a humidified 5% CO2 incubator. Phase contrast whole well images were captured every 3 h. The IncuCyte ZOOM and IncuCyte S3 software (Essen BioScience) were utilized in real-time to measure % confluence, as a proxy for proliferation.
Bliss independence (BI) scores were calculated to determine ASO-compound interactions. The predictive performance (BI score) is then compared to the observed drug interaction data measured by the Excess over Bliss. Excess over Bliss scores>0 indicate drug synergism, Excess over Bliss scores=0 indicate additive effects and Excess over Bliss scores<0 indicate drug antagonism.

[2] = system: UM cell lines 92.1 and OMM1; test: Differential gene expression analysis by RNA sequencing; format: cell-based, human; conditions: 92.1 and OMM1, 24 h; ASO 3 50 nM, GDC-0349 0.625 μM
Method: RNA sequencing was performed on quadruplicates of NTC (50 nM), ASO 3 (50 nM), GDC-0349 (0.625 μM) and ASO 3 (50 nM)+GDC-0349 (0.625 μM) treated 92.1 and OMM1 cells. Libraries for RNA sequencing were prepared using the Quant Seq 3′ end library prep […] and quantified on a Qubit 2.0 Fluorometer prior to single-end sequencing with 75 bp read length on a NextSeq 500 sequencer (Illumina). Reads were mapped to the human genome (hg38) and gene expression was quantified using HTSeq. Differentialy expressed genes were identified using DESeq2.

[3] = system: UM cell line OMM1; test: Seahorse XF Cell Mito Stress Test; format: cell-based, human; conditions: GDC-0349 0.625 μM, ASO 3 50 nM, combination compared to single ASO 3 treatment
Method: Cells were seeded in T75 culture flasks (Cellstar) at a density of 1 170 000 cells/T75 flask 24 h prior to transfection. The cells were transfected with 50 nM ASO 3 or NTC using lipofectamine 2000, followed by GDC-0349 (0.625 μM) treatment. Four hours later, 25 000 cells were transferred to Seahorse XFp Cell Culture Miniplates (Agilent) and were allowed to settle overnight. Subsequently, oxygen consumption rates were measured in triplicates for each condition using the Seahorse XFp device (Agilent) according to the standard mito stress test procedures in seahorse assay medium supplemented with 14.3 mM glucose, 1 mM pyruvate and 2 mM glutamine (Sigma), and cells were sequentially challenged with 1 μM oligomycin, 1 μM carbonyl cyanide 4-(trifluoromethoxy)-phenylhydrazone (FCCP) and 0.5 μM of a rotenone antimycin A mix (Agilent). Following the assay, protein concentrations were calculated based upon absorbance reading at 280 nm (Biodrop, Isogen Lifescience) for normalization of the results. Spare respiratory capacity was calculated as the difference between maximal and the basal oxygen consumption rate. Relative oxygen consumption rates are relative compared to NTC values.

[4] = system: UM cell lines 92.1 and OMM1; test: SUnSET puromycin incorporation (translation rate); format: cell-based, human; conditions: 92.1 and OMM1, 24 h; ASO 3 50 nM, GDC-0349 0.625 μM
Method: Cells were seeded in T75 culture flasks (Cellstar) at a density of 1 170 000 cells/T75 flask 24 h prior to transfection. The cells were transfected with 50 nM LNA ASO 3 or NTC using lipofectamine 2000, followed by GDC-0349 (0.625 μM) or DMSO treatment. 24 h later, cells were washed in 1× phosphate buffer saline (PBS) and subsequently incubated with puromycin containing media (InvivoGen, 10 μg/ml) for 10 min. Puromycin incorporation is a proxy for the mRNA translation rate in vitro and was measured by Western blotting using an anti-puromycin antibody (MABE343, clone 12D10, Merck Millipore, 1:10 000). The antibody was diluted in Milk/TB ST (5% non-fat dry milk in TBS with 0.1% Tween20). Imaging was performed by means of the Amersham Imager 680 (GE Healthcare). An equal protein loading was verified using a ponceau S staining (Sigma Aldrich). Image J was used for the quantification of the blots.

[5] = system: 4E-BP1 (T37/T46); test: Western blot for 4E-BP1 and phospho-4E-BP1; format: cell-based, human; conditions: 92.1, 24 h, GDC-0349 0.625 μM or 1.25 μM; for phosphorylated 4E-BP1 (T37/T46) levels: ASO 3 50 nM
Method: (§1) Cells were lysed in RIPA lysis buffer (5 mg/ml sodium deoxycholate, 150 mM NaCl, 50 mM Tris-HCl pH 7.5, 0.1% SDS solution, 1% NP-40) supplemented with protease and/or phosphatase inhibitors Protein concentrations were determined with the BCA protein assay (Bio-Rad). In total, 35 μg of protein lysate was loaded onto an SDS-PAGE gel (10% Pre-cast, Bio-Rad), run at 100 V for 1 h and subsequently blotted onto a nitrocellulose membrane. Antibodies against phospho-S6 Ribosomal Protein (Ser235/236) (#2211, 1:1000 dilution), phospho-4E-BP(Thr37/46) (#2855, 1:1000 dilution), S6 Ribosomal Protein (#2317, 1:1000 dilution) and 4E-BP1 (#9644, 1:1000 dilution) were purchased from Cell Signaling Technology. HRP-labeled anti-rabbit (7074 S, Cell Signaling, 1:10 000 dilution) and anti-mouse (7076P2, Cell Signaling, 1:10 000 dilution) antibodies were used as secondary antibodies. Anti-Vinculin antibody (V9131, Sigma-Aldrich, 1:10 000 dilution) was used as loading control. The antibodies were diluted in BSA/TBST (5% BSA in TBS with 0.1% Tween20) and antibody binding with membrane was evaluated using the SuperSignal West Dura Extended Duration Substrate (ThermoFisher Scientific) or SuperSignal West Femto Maximum Sensitivity Substrate (ThermoFisher Scientific). Imaging was performed by means of the Amersham Imager 680 (GE Healthcare). Image J was used for the quantification of the blots.

[6] = system: rpS6 (S235/S236); test: Western blot for rpS6 and phospho-rpS6; format: cell-based, human; conditions: 92.1, 24 h, GDC-0349 0.625 μM or 1.25 μM; for phosphorylated rpS6 (S235/S236) levels: ASO 3 50 nM
Method: as §1

[7] = system: UM patient derived xenografts (PDX) model (MP46); test: Tumor growth in UM patient derived xenograft model; format: in vivo, mouse
Method: Since SAMMSON expression is not conserved across species, an UM patient derived xenografts (PDX) model (MP46) was used to investigate the effect on tumor growth in vivo upon SAMMSON knock down. LNA ASO 3 and LNA non targeting control (NTC) were subcutaneous injected at a dose of 10 mg/kg three times in the first week and twice per week in the second and third week.

[8] = system: SAMMSON; test: SAMMSON expression / knockdown by RT-qPCR in UM cells; format: cell-based, human; conditions: in most cell lines
Method: Total RNA was extracted using the miRNeasy kit (Qiagen) according to the manufacturer's instructions, including on-column DNase treatment. The Nanodrop (ThermoFisher Scientific) was used to determine RNA concentrations and cDNA synthesis was performed using the iScript Advanced cDNA synthesis kit (Bio-Rad) using a mix containing 200 ng of RNA, 4 μl of 5× iScript advanced reaction buffer and 1 μl of iScript advanced reverse transcriptase. The qPCR mix contains 2 μl of cDNA (5 ng), 2.5 μl SsoAdvanced Universal SYBR Green Supermix (Bio-Rad), 0.25 μl forward (5 μM, IDT) and reverse primer (5 μM, IDT) and was analyzed on a LC-480 device (Roche). Expression levels were normalized using expression data of at least 2 stable reference genes out of 4 tested reference genes (SDHA^9,10, HPRT1^11,12, UBC^13 and TBP^14,15). Analysis was performed using the qbase+software (https://www.qbaseplus.com).

Q: For `CC(=O)Nc1ccc(C(=O)Nc2ccccc2N)cc1` [CI-994, N-(2-aminophenyl)-4-acetamidobenzamide], which “Excess over Bliss score (synergism)” value [1] is on record?
A: synergistic

Q: How did the “expression pattern of differentially expressed genes compared to NTC ASO” value [2] turn out when `CCNC(=O)Nc1ccc(-c2nc3c(c(N4CCOC[C@@H]4C)n2)CCN(C2COC2)C3)cc1` [GDC-0349, 3-ethyl-1-(4-{4-[(3S)-3-methylmorpholin-4-yl]-7-(oxetan-3-yl)-5H,6H,7H,8H-pyrido[3,4-d]pyrimidin-2-yl}phenyl)urea] was run?
A: not affecting the expression of many of these genes

Q: And the “mitochondrial function / oxidative phosphorylation (oxygen consumption rate)” value [3]?
A: does not alter the mitochondrial function

Q: And the “translation rate (incorporated puromycin signal)” value [4]?
A: translation inhibition

Q: And the “phosphorylated 4E-BP1 (T37/T46) levels” value [5]?
A: dose dependent reduction

Q: What about the “total 4E-BP1 levels” value [5] of the same compound?
A: remain unaffected

Q: And the “phosphorylated rpS6 (S235/S236) levels” value [6]?
A: dose dependent reduction

Q: And the “total rpS6 levels” value [6]?
A: remain unaffected

Q: What about the “Excess over Bliss score (synergism)” value [1] of the same compound?
A: synergistic

Q: `Cc1cc(C)c(-c2csc(NC(=O)c3ccccc3)n2)c(C)c1` [INH-6, N-[4-(2,4,6-trimethylphenyl)-2-thiazolyl]-benzamide] was tested. Which “Excess over Bliss score (synergism)” value [1] did it give?
A: synergistic

Q: With `COc1cc(NS(C)(=O)=O)ccc1Nc1c2ccccc2nc2ccccc12` [amsacrine, N-{4-[(acridin-9-yl)amino]-3-methoxyphenyl}methanesulfonamide] as the compound, how does the “Excess over Bliss score (synergism)” value [1] read?
A: synergistic

Q: With `Oc1c(I)cc(Cl)c2cccnc12` [clioquinol, 5-chloro-7-iodoquinolin-8-ol] as the compound, how does the “Excess over Bliss score (synergism)” value [1] read?
A: synergistic

Q: Which “Excess over Bliss score (synergism)” value [1] does the source give for `Nc1ccccc1NC(=O)c1ccc(CNC(=O)OCc2cccnc2)cc1` [entinostat, (pyridin-3-yl)methyl N-({4-[(2-aminophenyl)carbamoyl]phenyl}methyl)carbamate] here?
A: synergistic

Q: For `CC#C[C@]1(O)CC[C@H]2[C@@H]3CCC4=CC(=O)CCC4=C3[C@@H](c3ccc(N(C)C)cc3)C[C@@]21C` [mifepristone, (1S,3aS,3bS,10R,11 aS)-10-[4-(dimethylamino)phenyl]-1-hydroxy-11a-methyl-1-(prop-1-yn-1-yl)-1H,2H,3H,3aH,3bH,4H,5H,7H,8H,9H,10H,11H,11aH-cyclopenta[a]phenanthren-7-one], which “Excess over Bliss score (synergism)” value [1] is on record?
A: synergistic

Q: How did the weight loss ([7]; subcutaneous 10 mg/kg LNA ASO 3, PDX mice) turn out when “LNA ASO 3: LNA gapmer antisense oligonucleotide targeting SAMMSON, GTGTGAACTTGGCT (SEQ ID NO: 1), purchased from Qiagen (LNA gapmer from Qiagen, pattern not given here)” was run?
A: no weight loss

Q: And the tumor growth ([7]; subcutaneous 10 mg/kg, three times in first week, twice per week in second and third week, compared to NTC treated PDX mice)?
A: significant tumor growth inhibition

Q: What about the “expression pattern of differentially expressed genes compared to NTC ASO” value [2] of the same compound?
A: reverses the expression pattern

Q: And the “knockdown and phenotypic effect compared to LNA ASO 11” value [8]?
A: more efficient knockdown and phenotypic effect

Q: What about the “translation rate (incorporated puromycin signal)” value [4] of the same compound?
A: translation inhibition

Q: What about the “phosphorylated 4E-BP1 (T37/T46) levels” value [5] of the same compound?
A: less phosphorylated 4E-BP1

Q: What about the “phosphorylated rpS6 (S235/S236) levels” value [6] of the same compound?
A: doesn't affect the phosphorylation status of rpS6
